Measured values published in patent US5070210A, “Novel ketenimines as intermediates for insecticides” (ICI Americas Inc., priority 1990, dated 1991).

Key:
Assay type in all cases: in vivo
[1] = tested on: Housefly [Musca domestica]; assay: Housefly insecticidal test; details: μg per 25 female flies; mortality after 48 hours
Summary of the method: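 LC50, as μg compound per 25 female flies, comes from dosage-mortality curves with doses from 100 μg downward. Residues were made by evaporating acetone plus 0.01% peanut oil in dishes, onto which 1-2-day-old females were caged; deaths were counted after 48 hours.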

[2] = tested on: Tobacco Budworm [Heliothis virescens (Fabricius)] larvae; assay: Tobacco budworm contact test; details: second-instar larvae, percent in solution, 5 days
Procedure: (§1) The compounds in Tables 1 and 2 above were tested for insecticidal activity using the following testing procedures. LC50 values, based on the results of these tests and calculated according to dosage-mortality curves, are expressed in Table 3.
Tobacco Budworm [Heliothis virescens (Fabricius)]:
(a) Contact: Test compounds were diluted in a 50-50 acetone-water solution. Cotton (Gossypium sp.) cotyledons were immersed in the test solutions for 2-3 seconds and placed on a wire screen to dry. The dried leaves were placed in petri dishes containing a moistened piece of filter paper and infested with 5 second-instar tobacco budworm larvae. The dishes were placed in a high humidity chamber for 5 days, and percent mortality of the larvae recorded. Test concentrations ranged from 0.1% downward. The LC-50 values are expressed below in Table 3 under the heading "TBW-C" in terms of percent of the test compound in the solution.

[3] = tested on: Tobacco Budworm [Heliothis virescens (Fabricius)] eggs; assay: Tobacco budworm egg test; details: 2-day old eggs, percent in solution
Summary of the method: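 Paper-towel patches of 2-day-old eggs dipped in acetone solutions of compound (0.1% downward), held on larval rearing medium at 78° F. Mortality scored once all control eggs had hatched and larvae were feeding; LC50 from dosage-mortality curves, expressed as percent compound in solution.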

[4] = tested on: Cabbage Looper [Trichoplusia ni (Hubner)]; assay: Cabbage looper insecticidal test; details: second-instar larvae, percent in solution; 3-5 days
Summary of the method: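 Squash cotyledons dipped 2-3 s in compound in 50-50 acetone-water, dried, then infested with 5 second-instar larvae and held at high humidity. Mortality scored after 3-5 days at concentrations from 0.1% downward. LC50 from dosage-mortality curves, expressed as percent compound in solution.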

[5] = tested on: Aster Leafhopper [Macrosteles fascifrens (Stal)]; assay: Aster leafhopper insecticidal test; details: adults/nymphs, percent in solution; 48 hours
Summary of the method: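 LC50 values, given as percent of test compound in the dip solution, were derived from dosage-mortality curves over concentrations from 0.05% downward. Mortality was counted 48 hours after ten leafhopper adults/nymphs were enclosed on treated seedlings. The seedlings were oats, about 10 cm tall, briefly dipped in 50-50 acetone-water.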

[6] = tested on: Maize weevil [Sitophilus Zeamais (Motschulsky)]; assay: Maize weevil insecticidal test; details: adult weevils, percent in solution; 48 hours
Summary of the method: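 LC50, in percent of compound in solution, was derived from dosage-mortality curves after 48 h at about 25 °C. Ten adult weevils per container fed on four corn seeds briefly immersed in acetone:water (50:50) solutions of up to 0.01% and dried.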

[7] = tested on: Beet Armyworm (Spodoptera exigua); assay: Beet armyworm insecticidal test; details: second-instar larvae, percent in solution; five days
Procedure: as §1
Beet Armyworm (Spodoptera exigua):
Test compounds were diluted in a 50-50 acetone-water solution. Young leaves of sugar beets (Beta vulgaris) were immersed in the test solutions for 2-3 seconds and placed on a wire screen to dry. The dried leaves were placed in petri dishes containing a moistened filter paper and infested with five second-instar beet armyworm larvae. The dishes were placed in a high humidity chamber. Mortality of the larvae was recorded five days later. Test concentrations ranged from 0.1% downward. The LC-50 values are expressed below in Table 3 under the heading "BAW" in terms of percent of the test compound in solution.

Row | Structure (SMILES) | LC50, HF [1] [µg] | LC50, TBW, C (TBW-C) [2] [%] | LC50, TBW, E (TBW-E) [3] [%] | LC50, CL [4] [%] | LC50, LH [5] [%] | LC50, MW [6] [%] | LC50, BAW [7] [%]
1 | CC(C)C(=Nc1ccc(F)c(Cl)c1)OCc1cccc(Oc2ccc(C#N)cc2)c1 [Compound 196] | 17 | 0.001 | > 0.1 | 0.0006 | > 0.05 | > 0.01 | –
2 | CC(C)C(=Nc1ccc(I)cc1)OCc1cccc(Oc2ccc(F)cc2)c1 [Compound 234] | 38 | 0.0013 | 0.09 | 0.00045 | 0.003 | > 0.01 | –
3 | CC(C)(C)C(=Nc1ccc(Cl)cc1)OCc1cccc(Oc2ccccc2)c1 [Compound 30] | > 100 | 0.01 | > 0.1 | 0.003 | > 0.05 | > 0.01 | –
4 | CC(C)C(=Nc1ccc(F)c(C(F)(F)F)c1)OCc1cccc(Oc2ccc(F)cc2)c1 [Compound 120] | 14 | 0.0025 | 0.04 | 0.00015 | 0.0003 | > 0.01 | –
5 | O=[N+]([O-])c1cccc(N=C(OCc2cccc(Oc3ccccc3)c2)C(Cl)Cl)c1 [Compound 174] | 17 | – | > 0.1 | 0.03 | – | – | 0.1
6 | CC(C)C(=Nc1ccc(F)c(Cl)c1)OCc1cccc(Oc2ccc(F)c(F)c2)n1 [Compound 531] | 5 | 0.00037 | > 0.1 | > 0.1 | > 0.05 | > 0.01 | –
7 | CC(C)C(=Nc1ccc(Br)cc1)OCc1cccc(Oc2ccc(F)cc2)c1 [Compound 226] | 16 | 0.001 | 0.1 | 0.0005 | 0.002 | 0.009 | –
8 | CC(C)C(=Nc1cccc(C(F)(F)F)c1)OCc1cccc(Oc2ccc(F)cc2)c1 [Compound 202] | 18 | 0.0007 | > 0.1 | 0.00024 | 0.0003 | > 0.01 | –
9 | CC(C)C(=Nc1ccc(F)c(Cl)c1)OCc1cccc(Oc2ccccc2)n1 [Compound 462] | 7 | 0.0025 | 0.04 | 0.001 | 0.001 | > 0.05 | –
10 | CC(C)C(=Nc1ccc(C(F)(F)F)cc1)OCc1cccc(Oc2ccc(Cl)cc2)n1 [Compound 530] | 9.8 | 0.00005 | 0.005 | 0.00027 | 0.05 | > 0.01 | –
11 | CC(C)C(=Nc1ccc(F)c(F)c1)OCc1cccc(Oc2ccc(F)cc2)c1 [Compound 60] | 8 | 0.0009 | 0.017 | 0.001 | 0.002 | 0.0075 | –
12 | CC(C)C(=Nc1ccc(F)c(Cl)c1)OCc1cccc(Oc2ccc(Br)cc2)c1 [Compound 238] | 25 | 0.0004 | 0.05 | 0.0002 | > 0.05 | > 0.01 | –
13 | CC(C)C(=Nc1ccc(F)c(Br)c1)OCc1cccc(Oc2ccc(F)cc2)c1 [Compound 253] | 10 | 0.0005 | > 0.1 | 0.00013 | 0.003 | > 0.01 | –
14 | CC(C)C(=Nc1ccc(F)c(C(F)(F)F)c1)OCc1ccc(F)c(Oc2ccc(Cl)cc2)c1 [Compound 297] | 23 | 0.00075 | 0.025 | 0.00027 | 0.0001 | 0.0071 | –
15 | CC(C)C(=Nc1ccc(F)cc1F)OCc1cccc(Oc2ccc(F)cc2)c1 [Compound 209] | 17 | 0.005 | 0.1 | 0.0007 | 0.001 | > 0.01 | –
16 | C#CCc1c(F)c(F)c(COC(=Nc2ccc(F)c(Cl)c2)C(C)C)c(F)c1F [Compound 520] | 5.5 | 0.00075 | > 0.1 | > 0.1 | 0.0003 | 0.0042 | –
17 | CC(C)C(=Nc1ccc(Cl)c(Cl)c1)OCc1cccc(Oc2ccc(F)cc2)c1 [Compound 37] | 21 | 0.0005 | 0.014 | 0.0004 | 0.002 | 0.009 | –
18 | CC(C)C(=Nc1ccc(Cl)c(Cl)c1)OCc1cccc(Oc2ccc(Cl)cc2)n1 [Compound 523] | 22 | 0.0002 | > 0.1 | 0.00015 | > 0.05 | > 0.01 | –
19 | CCOc1ccc(N=C(OCc2cccc(Oc3ccccc3)c2)C(Cl)Cl)cc1 [Compound 138] | 19 | 0.015 | 0.08 | 0.005 | > 0.05 | > 0.01 | –
20 | CC1(C(=Nc2ccc(Cl)cc2)OCc2cccc(Oc3ccccc3)c2)CC1 [Compound 5] | 21 | 0.008 | 0.05 | 0.005 | > 0.05 | > 0.01 | –
21 | CC(C)C(=Nc1cccc(Cl)c1)OCc1cccc(Oc2ccc(F)cc2)c1 [Compound 194] | 10 | 0.0017 | 0.04 | 0.0005 | 0.0005 | > 0.01 | –
